In patent US9040516B2, “Uracil derivative and use thereof for medical purposes” (SUMITOMO DAINIPPON PHARMA CO., LTD., priority 2011, dated 2015):

Target: T1, human neutrophil elastase (Homo sapiens, UniProt P08246)
T1 construct: purchased Elastin Products Company
T1 sequence (P08246 30-267): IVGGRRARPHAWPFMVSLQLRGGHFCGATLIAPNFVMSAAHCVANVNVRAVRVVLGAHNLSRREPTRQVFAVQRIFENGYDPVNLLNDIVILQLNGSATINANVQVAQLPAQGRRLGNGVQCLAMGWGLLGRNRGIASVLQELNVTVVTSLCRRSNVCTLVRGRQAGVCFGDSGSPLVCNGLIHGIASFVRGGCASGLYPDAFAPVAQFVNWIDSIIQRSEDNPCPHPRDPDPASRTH
Experiment: Inhibitory action 2 against human neutrophil elastase (Test Example 2; fluorogenic substrate MeOSuc-AAPV-AMC, buffer with 400 mM NaCl, 0.2 mg/ml BSA)
Assay type: biochemical
Conditions: 37° C., read-out: IC50 value (compound concentration required for 50% inhibition of human neutrophil elastase)
Method: Assay buffer (0.4 unit/ml HNE (human neutrophil elastase, available from Elastin Products Company), 200 mM HEPES [N-(2-hydroxyethyl)piperazine-N′-(2-ethanesulfonic acid)], pH 7.5, 400 mM NaCl, 0.2 mg/ml BSA (bovine serum albumin)) 100 μl, water for injection 20 μl and 1% DMSO (dimethyl sulfoxide) solution of the present compound 20 μl were mixed in a 96 well plate and the mixed solutions were pre-incubated at 37° C. for five minutes. After pre-incubation, MeOSuc-AAPV-AMC (methoxysuccinyl-alanyl-alanyl-prolyl-valyl-aminomethyl cumaride (available from Sigma Aldrich Corp.) solution as fluorogenic substrate (which was dissolved in 10% DMSO solution so as to adjust to 0.5 mM) 40 μl was added to the above-prepared mixed solution so as to initiate the reaction, and the mixture was incubated at 37° C. for five minutes. The fluorescence intensity of AMC was measured at an excitation wavelength of 380 nm and a fluorescence wavelength of 460 nm and the inhibition ratio was determined.

SMILES | IC50 [nM]
Cc1c(-c2c(S(=O)(=O)NC(=O)C3CCCCC3)cnn2-c2ccc(C#N)cc2)c(=O)n(C)c(=O)n1-c1cccc(C(F)(F)F)c1 [Example 261] | 7.2
Cc1c(-c2c(C(=O)OCCCCN(C)C)cnn2-c2ccc(C#N)cc2)c(=O)n(C)c(=O)n1-c1cccc(C(F)(F)F)c1 [Example 187, 4-(dimethylamino)butyl 1-(4-cyanophenyl)-5-(3,6-dimethyl-2,4-dioxo-1-(3-trifluoromethylphenyl)-1,2,3,4-tetrahydropyrimidin-5-yl)-1H-pyrazole-4-carboxylate] | 19.4
CNS(=O)(=O)c1cnn(-c2ccc(C#N)cc2)c1-c1c(C)n(-c2cccc(C(F)(F)F)c2)c(=O)n(C)c1=O [Example 218] | 14.7
Cc1c(-c2c(S(=O)(=O)O)cnn2-c2ccc(C#N)cc2)c(=O)n(C)c(=O)n1-c1cccc(C(F)(F)F)c1 [Example 196] | 8.4
CCn1c(=O)c(-c2c(C3(N)CCC3)cnn2-c2ccc(C#N)cc2)c(C)n(-c2cccc(C(F)(F)F)c2)c1=O [Example 298] | 42.7
Cc1c(-c2c(S(=O)(=O)NC(=O)c3ccccc3)cnn2-c2ccc(C#N)cc2)c(=O)n(C)c(=O)n1-c1cccc(C(F)(F)F)c1 [Example 249] | 11.9
Cc1c(-c2c(S(C)(=O)=O)cnn2-c2ccc(C#N)cc2)c(=O)n(C)c(=O)n1-c1cccc(C(F)(F)F)c1 [Example 265] | 23.7
CCCCC(=O)NS(=O)(=O)c1cnn(-c2ccc(C#N)cc2)c1-c1c(C)n(-c2cccc(C(F)(F)F)c2)c(=O)n(C)c1=O [Example 243] | 5.4
COCCNC(=O)c1cnn(-c2ccc(C#N)cc2)c1-c1c(C)n(-c2cccc(C(F)(F)F)c2)c(=O)n(C)c1=O [Example 178] | 13.5
Cc1c(-c2c(C#N)cnn2-c2ccc(C#N)cc2)c(=O)n(C)c(=O)n1-c1cccc(C(F)(F)F)c1 [Example 363, 1-(4-Cyanophenyl)-5-(3,6-dimethyl-2,4-dioxo-1-(3-trifluoromethyl)-1,2,3,4-tetrahydropyrimidin-5-yl)-1H-pyrazole-4-carbonitrile] | 19.1
Cc1c(-c2c(C#N)cnn2-c2ccc(C#N)cc2)c(=O)n([C@@H]2CCN(C)C2)c(=O)n1-c1cccc(C(F)(F)F)c1 [Example 367] | 14
CCn1c(=O)c(-c2c(C(C)(C)O)cnn2-c2ccc(C#N)cc2)c(C)n(-c2cccc(C(F)(F)F)c2)c1=O [Example 288, 4-(5-(3-ethyl-6-methyl-2,4-dioxo-1-(3-trifluoromethylphenyl)-1,2,3,4-tetrahydropyrimidin-5-yl)-4-(2-hydroxypropan-2-yl)-1H-pyrazol-1-yl)benzonitrile] | 26.2
Cc1c(-c2c(S(N)(=O)=O)cnn2-c2ccc(C#N)cc2)c(=O)n(C)c(=O)n1-c1cccc(C(F)(F)F)c1 [Example 211, (+)-1-(4-cyanophenyl)-5-(3,6-dimethyl-2,4-dioxo-1-(3-trifluoromethylphenyl)-1,2,3,4-tetrahydropyrimidin-5-yl)-1H-pyrazole-4-sulfonamide 0.5 IPA solvates] | 8.8
Cc1c(-c2c(S(C)(=O)=O)cnn2-c2ccc(C#N)cc2)c(=O)n(C)c(=O)n1-c1cccc(C(F)(F)F)c1 (single isomer, unassigned) [Example 267] | 11.6
Cc1c(-c2c(S(N)(=O)=O)cnn2-c2ccc(C#N)cc2)c(=O)n(C)c(=O)n1-c1cccc(C(F)(F)F)c1 (single isomer, unassigned) [Example 209, (+)-1-(4-cyanophenyl)-5-(3,6-dimethyl-2,4-dioxo-1-(3-trifluoromethylphenyl)-1,2,3,4-tetrahydropyrimidin-5-yl)-1H-pyrazole-4-sulfonamide] | 9.3
Cc1c(-c2c(S(=O)(=O)O)cnn2-c2ccc(C#N)cc2)c(=O)n(C)c(=O)n1-c1cccc(C(F)(F)F)c1 [Example 191, 1-(4-cyanophenyl)-5-(3,6-dimethyl-2,4-dioxo-1-(3-trifluoromethylphenyl)-1,2,3,4-tetrahydropyrimidin-5-yl)-1H-pyrazole-4-sulfonic acid] | 23.1
Cc1c(-c2c(S(=O)(=O)NCCO)cnn2-c2ccc(C#N)cc2)c(=O)n(C)c(=O)n1-c1cccc(C(F)(F)F)c1 [Example 227] | 7.8
Cc1c(-n2cnnc2-c2ccc(C#N)cc2)c(=O)n(C(C)C)c(=O)n1-c1cccc(C(F)(F)F)c1 [Example 65, 4-(4-(3-Isopropyl-6-methyl-2,4-dioxo-1-(3-(trifluoromethyl)phenyl)-1,2,3,4-tetrahydropyrimidin-5-yl)-4H-1,2,4-triazol-3-yl)benzonitrile] | 5.5
Cc1c(-c2c(N3CCN(C(C)C)CC3)cnn2-c2ccc(C#N)cc2)c(=O)n(C)c(=O)n1-c1cccc(C(F)(F)F)c1 [Example 318] | 14.9
COC(=O)NS(=O)(=O)c1cnn(-c2ccc(C#N)cc2)c1-c1c(C)n(-c2cccc(C(F)(F)F)c2)c(=O)n(C)c1=O [Example 252] | 20.6

Second part, the compound after the results:

IC50 [nM] | SMILES
4.5 | CC(=O)N1CCC(n2c(=O)c(-c3ccnn3-c3ccc(C#N)cc3)c(C)n(-c3cccc(C(F)(F)F)c3)c2=O)CC1 [Example 337]
12.9 | Cc1c(-c2ccnn2-c2ccc(C#N)cc2)c(=O)n(C(C)CCNC2CC(F)(F)C2)c(=O)n1-c1cccc(C(F)(F)F)c1 (centres unmarked) [Example 406]
14.7 | Cc1c(-c2ccnn2-c2ccc(C#N)cc2)c(=O)n(C(C)CCNc2ccncc2)c(=O)n1-c1cccc(C(F)(F)F)c1 (centres unmarked) [Example 408]
5.4 | Cc1c(-c2c(C(=O)N(C)C)cnn2-c2ccc(C#N)cc2)c(=O)n(C(C)C)c(=O)n1-c1cccc(C(F)(F)F)c1 [Example 153]
16.7 | Cc1c(-c2c(Cl)cnn2-c2ccc(C#N)cc2)c(=O)n(C)c(=O)n1-c1cccc(C(F)(F)F)c1 [Example 360, 4-(4-chloro-5-(3,6-dimethyl-2,4-dioxo-1-(3-trifluoromethylphenyl)-1,2,3,4-tetrahydropyrimidin-5-yl)-1H-pyrazol-1-yl)benzonitrile]
12 | Cc1c(-c2c(S(C)(=O)=O)cnn2-c2ccc(C#N)cc2)c(=O)n(C(C)C)c(=O)n1-c1cccc(C(F)(F)F)c1 (racemic) [Example 276, (±)-4-(5-(3-Isopropyl-6-methyl-2,4-dioxo-1-(3-trifluoromethylphenyl)-1,2,3,4-tetrahydropyrimidin-5-yl-4-(methylsulfonyl)-1H-pyrazol-1-yl)benzonitrile]
9.3 | Cc1c(-c2c(S(N)(=O)=O)cnn2-c2ccc(C#N)cc2)c(=O)n(C(C)C)c(=O)n1-c1cccc(C(F)(F)F)c1 [Example 206]
18.7 | Cc1c(-c2ccnn2-c2ccc(C#N)cc2)c(=O)n(C(C)C(=O)N(C)C)c(=O)n1-c1cccc(C(F)(F)F)c1 (centres unmarked) [Example 379]
13.7 | CCc1c(-c2ccnn2-c2ccc(C#N)cc2)c(=O)n(C)c(=O)n1-c1cccc(C(F)(F)F)c1 [Example 50, 4-(5-(6-ethyl-3-methyl-2,4-dioxo-1-(3-(trifluoromethyl)phenyl)-1,2,3,4-tetrahydropyrimidin-5-yl)-1H-pyrazol-1-yl)benzonitrile]
12.8 | Cc1c(-c2ccnn2-c2ccc(C#N)cc2)c(=O)n(C(C)C(=O)N2CC(O)C2)c(=O)n1-c1cccc(C(F)(F)F)c1 (centres unmarked) [Example 383]
6.3 | Cc1c(-c2c(Cl)cnn2-c2ccc(C#N)cc2)c(=O)n(C(C)C(N)=O)c(=O)n1-c1cccc(C(F)(F)F)c1 (centres unmarked) [Example 361]
12.3 | Cc1c(-c2ccnn2-c2ccc(C#N)cc2)c(=O)n([C@H](C)CS(C)(=O)=O)c(=O)n1-c1cccc(C(F)(F)F)c1 [Example 375]
